In US20040121994A1, “Novel amides that activate soluble guanylate cyclase” (priority 2002, published 2004):

Biological target: T1, soluble guanylate cyclase (sGC), α1 and β1 subunits of guanylate cyclase expressed in Sf9 cells (Homo sapiens, UniProt Q02108+Q02153)
T1 construct: made in house; host or cells: Sf9 insect cells (baculovirus co-infection)
T1 sequence (Q02108 1-690): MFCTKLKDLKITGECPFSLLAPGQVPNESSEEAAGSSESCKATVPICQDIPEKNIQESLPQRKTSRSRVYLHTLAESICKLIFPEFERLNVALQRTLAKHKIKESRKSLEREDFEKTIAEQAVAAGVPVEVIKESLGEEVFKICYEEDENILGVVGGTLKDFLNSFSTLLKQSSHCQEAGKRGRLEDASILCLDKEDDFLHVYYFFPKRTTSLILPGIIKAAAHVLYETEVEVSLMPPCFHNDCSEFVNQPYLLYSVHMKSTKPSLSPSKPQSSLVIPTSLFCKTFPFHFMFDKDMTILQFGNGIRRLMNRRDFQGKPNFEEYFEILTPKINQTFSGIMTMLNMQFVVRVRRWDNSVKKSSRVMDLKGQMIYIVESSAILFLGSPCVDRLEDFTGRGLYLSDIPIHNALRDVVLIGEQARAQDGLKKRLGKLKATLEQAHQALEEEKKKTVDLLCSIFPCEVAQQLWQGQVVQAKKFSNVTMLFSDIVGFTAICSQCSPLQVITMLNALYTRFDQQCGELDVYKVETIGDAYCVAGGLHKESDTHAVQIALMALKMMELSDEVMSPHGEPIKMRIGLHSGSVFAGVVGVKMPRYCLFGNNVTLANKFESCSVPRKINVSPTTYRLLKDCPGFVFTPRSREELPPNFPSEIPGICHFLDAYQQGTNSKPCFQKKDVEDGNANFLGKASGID
T1 sequence (Q02153 1-619): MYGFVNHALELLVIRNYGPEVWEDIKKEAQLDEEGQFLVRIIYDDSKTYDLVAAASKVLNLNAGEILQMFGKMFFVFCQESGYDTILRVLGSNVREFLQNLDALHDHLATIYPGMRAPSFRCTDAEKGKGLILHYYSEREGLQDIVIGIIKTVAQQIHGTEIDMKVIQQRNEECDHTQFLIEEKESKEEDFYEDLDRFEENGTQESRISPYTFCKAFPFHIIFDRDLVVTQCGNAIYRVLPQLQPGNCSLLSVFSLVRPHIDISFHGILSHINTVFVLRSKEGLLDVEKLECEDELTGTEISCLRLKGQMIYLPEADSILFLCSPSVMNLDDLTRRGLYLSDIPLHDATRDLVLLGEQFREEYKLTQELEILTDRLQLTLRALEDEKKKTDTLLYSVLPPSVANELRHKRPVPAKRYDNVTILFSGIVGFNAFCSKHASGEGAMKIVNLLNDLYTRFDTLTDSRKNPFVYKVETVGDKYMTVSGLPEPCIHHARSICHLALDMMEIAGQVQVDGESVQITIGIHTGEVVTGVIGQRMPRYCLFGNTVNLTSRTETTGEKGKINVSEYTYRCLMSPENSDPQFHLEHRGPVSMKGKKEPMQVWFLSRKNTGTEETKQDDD
Experiment: Guanylate cyclase assay (formation of cyclic GMP from GTP)
Assay type: biochemical
Conditions: for Mean activation at 100 μM: (activity of compound at 100 μM with 1 μM SNP)−(activity of compound at 100 μM)/(activity of SNP at 1 μM)−(basal activity of sGC); for Mean efficacy of compound combined with 1 μM of SNP, [%]: compound at 100 μM with 1 μM sodium nitro prusside (SNP); for Mean efficacy of compound combined with 1 μM of SNP, [%] / Emax at 100 µM: normalized with the activity of 100 μM YC-1 (without SNP) as 100%; for Emax at 100 µM: compound at 100 μM without SNP, read-out: Mean basal efficacy of compound alone at 100 μM, [%]
Description: Sf9 cells were cultured in Sf-90011 medium supplemented with 10% (v/v) fetal calf serum at 28° C. to give a count of 6×10^5 cells/ml. The cells were then infected with a mixture of the virus stocks for the α1 and β1 subunits of guanylate cyclase at a multiplicity of infection of 0.1 pfu/cell. The cells were harvested 72 hours after infection and were pelleted by centrifugation. The resulting cell pellets were homogenized with Polytron homogenizer in 3 volumes of 20 mM Tris-HCl (pH 7.6) containing 1 mM EDTA, 5 mM dithiothreitol, 90 mM NaCl, 10% glycerol, and protease inhibitors mix (Roche Molecular Biochemicals). The homogenate was centrifuged at 50,000×g for 60 minutes and the supernatant was aliquotted and stored at −80° C.
Compounds of the present invention were dissolved in DMSO to make 100 mM and saved as stocks at −20° C. When compounds were tested, prepared 10-fold concentrated solutions with 10% DMSO. Then added 10 μl of 10-fold concentrated compound solutions to the reaction mixture of total 100 μl.
Guanylate cyclase activity was measured by the formation of cyclic GMP from GTP in a total volume of 100 μl. Guanylate cyclase-expressed Sf9 cell high-speed supernatant was used as an enzyme source for the assay. The reaction mixture containing 0.1 μl enzyme (Sf9 high-speed sup), compound solution, 50 mM Tris-HCl (pH 7.6), 4 mM MgCl2, 0.5 mM IBMX, 15 mM creatine phosphate, 20 μg creatine phosphokinase, 0.1% BSA and 1 mM GTP was incubated at 37° C. for 15 minutes. After the reaction, 0.9 ml of 50 mM sodium acetate buffer (pH 5.8) was added followed by boiling for 3 minutes to stop the reaction. The solution was centrifuged at 3000 rpm for 15 minutes at room temperature and cyclic GMP in 20 μl of the resulting supernatant was measured according to the protocol of Amersham cyclic GMP enzymeimmunoassay system (purchased from Sigma, catalogue number RPN 226).
Compounds of the present invention were tested at 100 μM with and without 1 μM sodium nitro prusside (SNP). 1-Benzyl-3-hydroxymethyl-2-furylindazole (YC-1) was included as a standard for each assay. The data was normalized with the activity of 100 μM YC-1 (without SNP) as 100%. Mean basal efficacy, in Table 1, was expressed as a percentage of 100 μM YC-1 (without SNP).
The mean activation, in Table 1, was calculated based on the formula: (activity of compound of the present invention at 100 μM with 1 μM SNP)−(activity of compound of the present invention at 100 μM)/(activity of SNP at 1 μM)−(basal activity of sGC).

Row | SMILES | Mean activation at 100 μM | Mean efficacy of compound combined with 1 μM of SNP, [%] | Emax at 100 µM [%]
1 | CCNC(=O)/C=C/c1ccccc1Sc1ccc(Cl)cc1 [Example 32, (2E)-3-{2-[(4-chlorophenyl)thio]phenyl}-N-ethylacrylamide] | 10.5 | 78 | 27
2 | CCCCNC(=O)/C=C/c1ccccc1Sc1ccc(Cl)cc1 [Example 33, (2E)-N-butyl-3-{2-[(4-chlorophenyl)thio]phenyl}acrylamide] | 6.9 | 38 | 7
3 | O=C(/C=C/c1ccccc1Sc1ccc(Cl)cc1)NCCCCO [Example 34, (2E)-3-{2-[(4-chlorophenyl)thio]phenyl}-N-(4-hydroxybutyl)acrylamide] | 6.9 | 219 | 113
4 | O=C(/C=C/c1ccccc1Sc1ccc(Cl)cc1)NCCCCCO [Example 35, (2E)-3-{2-[(4-chlorophenyl)thio]phenyl}-N-(5-hydroxypentyl)acrylamide] | 6.3 | 228 | 49
5 | Cc1ccc(Sc2ccccc2/C=C/C(=O)NCCCCO)cc1 [Example 36, (2E)-N-(4-hydroxybutyl)-3-{2-[(4-methylphenyl)thio]phenyl}acrylamide] | 9.2 | 212 | 66
6 | CC(O)CNC(=O)/C=C/c1ccccc1Sc1ccc(Cl)cc1 (stereo not drawn) [Example 37, (2E)-3-{2-[(4-chlorophenyl)thio]phenyl}-N-(2-hydroxypropyl)acrylamide] | 30.6 | 405 | 70
7 | CC(O)CCNC(=O)/C=C/c1ccccc1Sc1ccc(Cl)cc1 (stereo not drawn) [Example 38, (2E)-3-{2-[(4-chlorophenyl)thio]phenyl}-N-(3-hydroxybutyl)acrylamide] | 19.0 | 259 | 60
8 | CCC(O)CNC(=O)/C=C/c1ccccc1Sc1ccc(Cl)cc1 (stereo not drawn) [Example 39, (2E)-3-{2-[(4-chlorophenyl)thio]phenyl}-N-(2-hydroxybutyl)acrylamide] | 19.3 | 305 | 73
9 | O=C(/C=C/c1ccccc1Sc1ccc(Cl)cc1)NC1CCCCC1O (stereo not drawn) [Example 40, (2E)-3-{2-[(4-chlorophenyl)thio]phenyl}-N-(2-hydroxycyclohexyl)acrylamide] | 6.3 | 366 | 100
10 | O=C(/C=C/c1c(F)cccc1Sc1ccc(Cl)cc1)NCCCCO [Example 41, (2E)-3-{2-[(4-chlorophenyl)thio]-6-fluorophenyl}-N-(4-hydroxybutyl)acrylamide] | 3.8 | 69 | 5
11 | Cc1ccc(Sc2ccccc2/C=C/C(=O)NC2CCC(O)CC2)cc1 (stereo not drawn) [Example 42, (2E)-N-(4-hydroxycyclohexyl)-3-{2-[(4-methylphenyl)thio]phenyl}acrylamide] | 4.8 | 58 | 14
12 | COc1ccc(Sc2ccc(C)cc2)c(/C=C/C(=O)NC2CCC(O)CC2)c1 (stereo not drawn) [Example 44, (2E)-N-(4-hydroxycyclohexyl)-3-{5-methoxy-2-[(4-methylphenyl)thio]phenyl}acrylamide] | 3.5 | 89 | 36
13 | O=C(/C=C/c1ccccc1Sc1ccccc1)NC1CCCCC1O (stereo not drawn) [Example 46, (2E)-N-(2-hydroxycyclohexyl)-3-[2-(phenylthio)phenyl]acrylamide] | 4.3 | 121 | 54
14 | Cc1ccc(Sc2ccccc2/C=C/C(=O)NC2CCCCC2O)cc1 (stereo not drawn) [Example 47, (2E)-N-(2-hydroxycyclohexyl)-3-{2-[(4-methylphenyl)thio]phenyl}acrylamide] | 2.8 | 44 | 16
15 | COc1cccc(Sc2ccccc2/C=C/C(=O)NC2CCCCC2O)c1 (stereo not drawn) [Example 48, (2E)-N-(2-hydroxycyclohexyl)-3-{2-[(3-methoxyphenyl)thio]phenyl}acrylamide] | 4.6 | 102 | 20
16 | COc1ccc(Sc2ccccc2/C=C/C(=O)NC2CCCCC2O)cc1 (stereo not drawn) [Example 49, (2E)-N-(2-hydroxycyclohexyl)-3-{2-[(4-methoxyphenyl)thio]phenyl}acrylamide] | 3.7 | 79 | 15
17 | COc1cccc(Sc2ccccc2/C=C/C(=O)NC2CCC(O)CC2)c1 (stereo not drawn) [Example 50, (2E)-N-(4-hydroxycyclohexyl)-3-{2-[(3-methoxyphenyl)thio]phenyl}acrylamide] | 6.4 | 175 | 68
